Measured values reported in paper PMC4783990, “Cloning and Characterization of a Flavonoid 3′-Hydroxylase Gene from Tea Plant (Camellia sinensis)” (International Journal of Molecular Sciences, 2016).
Like-named read-outs stand apart in the source and are kept apart here.

Target: T1, CsF3′H (Camellia sinensis, UniProt A0A0S2LLA9)
T1 construct: microsomes of Saccharomyces cerevisiae WAT11, which co-expresses an Arabidopsis thaliana P450 reductase; ORF amplified with its own stop codon, no tag stated
T1 sequence (A0A0S2LLA9 entry or part of it): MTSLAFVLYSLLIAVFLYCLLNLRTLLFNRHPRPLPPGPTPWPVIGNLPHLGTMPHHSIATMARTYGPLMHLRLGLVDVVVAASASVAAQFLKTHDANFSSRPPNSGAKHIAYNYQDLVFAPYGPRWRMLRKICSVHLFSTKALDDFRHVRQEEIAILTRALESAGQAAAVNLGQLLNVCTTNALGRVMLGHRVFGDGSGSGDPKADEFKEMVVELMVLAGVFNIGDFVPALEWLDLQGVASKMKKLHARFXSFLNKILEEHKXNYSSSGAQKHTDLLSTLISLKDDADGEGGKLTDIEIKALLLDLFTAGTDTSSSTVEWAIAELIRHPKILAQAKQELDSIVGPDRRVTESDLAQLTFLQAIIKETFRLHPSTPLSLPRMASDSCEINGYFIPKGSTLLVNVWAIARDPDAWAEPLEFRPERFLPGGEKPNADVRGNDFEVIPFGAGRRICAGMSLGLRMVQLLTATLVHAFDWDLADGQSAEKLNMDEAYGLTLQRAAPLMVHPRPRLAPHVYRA
Assay: HPLC product formation with recombinant yeast microsomes
Assay type: biochemical
Conditions: 1.0 mM NADPH, 100 mM sodium phosphate pH 7.0, 30 °C, 30 min
Excerpt: HPLC product formation with recombinant yeast microsomes on CsF3′H

`O=C1c2c(O)cc(O)cc2OC(c2ccc(O)cc2)C1O` (racemic) [Dihydrokaempferol] showed a Km (racemic substrate, read-out: Dihydrokaempferol) of 143.6 ± 0.69 µM.

`O=C1CC(c2ccc(O)cc2)Oc2cc(O)cc(O)c21` (racemic) [Naringenin] gave a Km (racemic substrate, read-out: Naringenin) of 17.1 ± 0.46 µM.

For `O=c1c(O)c(-c2ccc(O)cc2)oc2cc(O)cc(O)c12` [Kaempferol], the Km (read-out: Kaempferol) was 68.06 ± 0.43 µM.
